Measured values taken from patent US10500188B1, “Use of a polyenylpyrrole derivative in preparation of anti-oral cancer drugs” (TZU CHI UNIVERSITY, priority 2019, dated 2019).

Experiments:
[1] = tested on: IL-17RA in OSCC cells (SCC-15); assay: Western blot of IL-17RA expression; type: cell-based, human; settings: SCC-15, Western blot, vs DMSO control; FIG. 7
Protocol: Western blot is used to detect expression of IL-17RA in the OSCC cells (SCC-15) treated with the polyenylpyrrole derivative (F236B). The proteins are separated by SDS-PAGE gel and then transferred to a Polyvinylidene difluoride (PVDF) membrane. Then soak in 5% BSA (bovine serum albumin) for 1 hour for blocking. After removal of BSA and addition of primary antibodies, place the membrane in 4° C. refrigerator with constant shaking for 16 hr and wash 3 times with TBST-Tween20 (TBST) (each takes 15 min). Next add secondary antibodies and shake at room temperature for 1 hour. Then wash 3 times with TBST and each step takes 15 min. Lastly use enhanced chemiluminescent (ECL) reagent (RPN2106 ECL™ Western Blotting Reagent) for imaging and UVP BioSpectrum to detect images. […] Therefore, the reduction effect of the polyenylpyrrole derivative (F236B) on the expression of IL-17RA is associated with the tumor-suppressor function of the polyenylpyrrole derivative (F236B).

[2] = tested on: prostate apoptosis response-4 (Par-4); assay: Expression of Par-4 in OSCC cells; type: cell-based; settings: FIG. 3C
Protocol: Also refer to FIG. 3D and FIG. 3E. The results of the SC group (SCC-15 cell line without the knockdown Par-4 gene) treated with 10 nM, 50 nM, 80 nM, 100 nM, and 200 nM polyenylpyrrole derivative (F236B) for 24 hours and 48 hours respectively are shown in FIG. 3D. The results of the Par-4-KD group (SCC-15 cell line with the knockdown Par-4 gene) treated with 10 nM, 50 nM, 80 nM, 100 nM, and 200 nM polyenylpyrrole derivative (F236B) for 24 hours and 48 hours respectively are shown in FIG. 3E.

OSCC cells (SCC-15) = assay: MTT cell proliferation assay, OSCC cells (SCC-15); type: cell-based, human
Protocol: (§1) MTT (3-(4,5-dimethylthiazol-2-yl)-2,5-diphenyltetrazolium bromide) assay is used for measuring cell proliferation. Add 3000 OSCC cells (SCC-15 and TW2.6) and 5000 immortalized cells (K2) into each well of a 96-well plate. Next day add the present polyenylpyrrole derivative (F236B) into the respective well and remove culture medium after 24 hours (hr) and 48 hr respectively. Then add MTT dissolved in culture medium (150 μL per well) except the background wells and react for 90 min. Lastly remove solution in the culture plate and add DMSO (150 μL per well) into the culture plate for dissolving the pigment. After being dissolved completely, use the ELISA machine to measure absorbance at 570 nm. The concentration of the polyenylpyrrole derivative (F236B) used is 10, 50, 80, 100, and 200 nM respectively, as results shown in FIG. 2A-2C.
Also refer to FIG. 2C, test results of OSCC cells (TW2.6) treated with 10, 50, 80, 100, and 200 nM polyenylpyrrole derivative (F236B) respectively are disclosed. […] Moreover, the present polyenylpyrrole derivative (F236B) not only has effects on the OSCC cells of Western people (SCC-15) but also affects the OSCC cells of Asians (TW2.6). Thus the polyenylpyrrole derivative (F236B) can be widely used in the OSCC cells. In the previous tests for assessment of the effects of natural products on cancer cells, the unit of the concentration unit used is μM. […]

[3] = tested on: patient oral cancer tissue xenograft; assay: Patient-derived xenograft (PDX) model of patients with oral cancers; type: in vivo, NOD-SCID male mice
Source text: (§2) In order to learn whether in vivo test results of OSCC cells (SCC-15, TW2.6) are consistent with in vitro test results of the same, a cell-line-derived xenograft model (SCC-15 cell line) and a patient-derived xenograft (PDX) model of patients with oral cancers are used to test xenograft tumorigenicity of oral cancer cells and the results are shown in FIG. 2D-2F.
After approval of the institutional review board (IRB), oral cancer tissues of patients are collected at the Department of Otolaryngology, Hualien Tzu Chi Hospital during the period from Jul. 1, 2016 to Jun. 30, 2017. The PDX model has been established by immersing and washing the samples collected in Penicillin/Streptomycin diluted 2-fold with PBS, and using six-to-eight-week-old NOD-SCID male mice. After injection of a 0.01 mL/g body weight dose of ketamine/xylazine into a mouse, a 1.5×1.5 cm^2 skin surface at the right abdomen of the anesthetized mouse is treated with a depilatory agent to remove hair. Use tincture of iodine as a disinfectant and cut a wound of […] on the mouse skin and suture the wound after tumor tissue being applied. During recovery period, the rearing cage is set on the heating pad and turned back to the rearing rack after recovery. After the surgery, observe the mouse day by day and then get the mouse out of the cage when the tumor reaches a diameter of about 1 cm. […]

[4] = tested on: SCC-15 cell line without the knockdown Par-4 gene; assay: Migration test, SC group; type: cell-based, human; settings: 100 nM and 200 nM; 0, 3, 9 hr; FIG. 5A
Protocol: Then migration and movement of the Par-4-KD group and the SC group treated with polyenylpyrrole derivative (F236B) is tested and the results are shown in FIG. 5A-5B and FIG. 6.
The results of the Par-4-KD group (SCC-15 cell line with the knockdown Par-4 gene) treated with 100 nM and 200 nM polyenylpyrrole derivative (F236B) for 0, 3, and 9 hrs respectively are shown in FIG. 5B.

normal oral cells (K2) = assay: MTT cell proliferation assay, normal oral cells (K2); type: cell-based; settings: 100, 500, 800, 1000 nM, 24 and 48 hr, FIG. 2A
Protocol: as §1, with “The concentration of the polyenylpyrrole derivative (F236B) used is 10, 50, 80, 100, and 200 nM respectively, as results shown in FIG.” left out

SCC-15 cells [5] = assay: Tumor sphere formation on matrigel; type: cell-based, human; settings: compared with the Par-4-KD group; FIG. 4
Protocol: Refer to FIG. 4, the test results of the tumor sphere formation ability of the OSCC cells are shown. In order to culture cells (SCC-15) for tumor sphere formation, each well of a 24-well plate is coated with 150 μL growth factor reduced matrigel, then placed in 4° C. refrigerator and shaken for 15 minutes to make the growth factor reduced matrigel distribute evenly therein. Place in 37° C. incubator for 1 hour. After firm matrigel formation, each well is added with 5000 SCC-15 cells and change culture medium every day.

[6] = tested on: TW2.6 human oral squamous cell carcinoma (OSCC) cell line; assay: MTT cell proliferation assay, OSCC cells (TW2.6); type: cell-based; settings: 10, 50, 80, 100, 200 nM, 24 and 48 hr, FIG. 2C
Source text: The present polyenylpyrrole derivative is used to inhibit oral cancer cells. The oral cancer cell can be oral squamous cell carcinoma (OSCC) cell (SCC-15 cell line). The TW2.6 human oral squamous cell carcinoma (OSCC) cell line obtained from Asian people can also be used in cell proliferation assay.
as §1
Also refer to FIG. 2C, test results of OSCC cells (TW2.6) treated with 10, 50, 80, 100, and 200 nM polyenylpyrrole derivative (F236B) respectively are disclosed. […]

SCC-15 xenograft tumor = assay: Cell-line-derived xenograft model (SCC-15 cell line); type: in vivo, NOD-SCID male mice; settings: 1 mg/kg s.c. into neck, vs PBS control, FIG. 2D
Source text: as §2
As to the cell-line-derived xenograft model, six-to-eight-week-old NOD-SCID male mice are used. About 5×10^6 SCC-15 cells are subcutaneously injected into the right abdominal of the mouse. There are two experimental groups. The mouse in the first group (I) is injected with the polyenylpyrrole derivative (F236B) the day after being injected with the OSCC cells. In the second group (II), the mouse is injected with the polyenylpyrrole derivative (F236B) when the tumor grows to a size with a diameter of about […]. The polyenylpyrrole derivative (F236B) at a dose of 1 mg/kg is subcutaneously injected into the neck of the mouse. Samples are taken when the cells grow to a size with a diameter of about 1 cm (21-day).

SCC-15 cells [7] = assay: Transwell assay for movement of tumor cells; type: cell-based, human; settings: 24 and 48 hrs, compared with the Par-4-KD group, FIG. 6
Protocol: Refer to FIG. 6, a transwell assay is used for testing movement of tumor cells. A 24-well transwell chamber with 8.0 μm polycarbonate membrane (6.5 mm) therein is used. Add 100 μL serum free media into the upper layer and 500 μL media containing 10% serum into the lower layer. Then add 5000 cells (SCC-15) into the upper layer of each well, incubate overnight and add the polyenylpyrrole derivative (F236B). Remove the upper layer after 24 hrs and 48 hrs, respectively and wash 2 times with PBS. Add methanol (500 μL per well) at 4° C. for 1 hr for fixation and wash 2 times with PBS. Next, stain with crystal violet for 10 min and wash 2 times with PBS. Lastly observe and count the number of cells moved to the lower layer.

CCOc1cc(/C=C/C=C/C=C/C=C/c2[nH]ccc2Cl)oc(=O)c1 [F236B]
expression of IL-17RA [1]: obviously inhibited
expression of Par-4 in the OSCC cells [2]: enhances expression of Par-4
proliferation of OSCC cells (SCC-15) (OSCC cells (SCC-15); MTT, 10, 50, 80, 100, 200 nM, 24 and 48 hr, FIG. 2B): inhibits proliferation of the OSCC cells (SCC-15)
proliferation of OSCC cells in the SC group (OSCC cells (SCC-15); SCC-15 without Par-4 knockdown, 10-200 nM, 24 and 48 hours, FIG. 3D): apparently reduced
tumor volume, PDX ([3]; P3 mice, 1 mg/kg s.c. into neck, vs PBS control, FIG. 2E): dramatically decreased
weight of the mouse ([3]; treated with F236B vs PBS, triplicate groups, FIG. 2F): not affected
migration ability, SC group [4]: clearly reduced
proliferation of normal oral cells (K2) (normal oral cells (K2)): doesn't affect the proliferation of normal oral cells
tumor sphere formation ability, SC group (SCC-15 cells [5]): obviously reduced
proliferation of OSCC cells (TW2.6) [6]: inhibits proliferation of the OSCC cells (TW2.6)
tumor volume, first group (I) (SCC-15 xenograft tumor; started the day after injection of OSCC cells, 21-day): significantly reduced
tumor volume, second group (II) (SCC-15 xenograft tumor; started when tumor diameter about 30 mm): significantly reduced
movement of the OSCC cells in the SC group (SCC-15 cells [7]): significantly reduced
